# Patent US20120219568A1, “EPIDITHIODIOXO[…] USES THEREOF IN TREATING CANCER” (priority 2011, published 2012)
# How the values were obtained:
# Bcap-37 = test: MTT growth inhibition, Bcap-37; format: cell-based; settings: Homo sapiens, Bcap37, Mammary Carcinoma, MTT assay
# Protocol: (§1) For cell viability assay, cells were seeded in wells of 96-well plates for 2 days and then treated with different concentrations of mushroom extract fractions or purified verticillin A for 2 days. The cells were then incubated with MTT (3-(4,5-dimethylthiazol-2-yl)-2,5-diphenyltetrazolium bromide) using the MTT assay kit (ATCC, Manassas, Va.) according to the manufacturer's instructions.
# (§2) To determine whether verticillin A inhibits other types of tumor cell growth, Mammary carcinoma (Bcap-37 and MCF-7), heptocarcinoma (HepG2), cervical (HeLa), liver (SMMC-7721), lung (SPC-A1) cancer cells and T cell leukemia (Jurkat) were cultured in the presence of different concentrations of verticillin A and examined for the efforts of verticillin A on the growth rate of these tumor cells in vitro.
# [1] = system: BNIP3, IRF8, Neurog1, p15ink4b, RUNX3; test: Expression of genes with methylated promoters; format: cell-based, human; settings: SW620, verticillin A 0-50 nM
# Protocol: To determine whether verticillin A inhibits DNA methylation in other gene promoters, 4 other genes (IRF8, Neurog1, p15ink4b, RUNX3) with known promoter DNA methylation in human colon carcinoma cells were selected. SW620 cells were treated with AzadC (0-1.0 μM) and verticillin A (0-50 nM), respectively, and analyzed for the expression of BNIP3 and these 4 genes.
# [2] = system: multiple types of tumor cell lines; test: Growth inhibition of multiple types of tumor cell lines; format: cell-based
# Protocol: as §1, §2
# HepG2 cells [3] = test: MTT growth inhibition, HepG2; format: cell-based, human
# Protocol: as §1
# (§3) The growth inhibitory effort of the purified verticillin A was examined on HepG2 cells. Tumor cells were cultured in the presence of different concentrations of verticillin A and analyzed for the growth by MTT assay 24 and 72 h later, respectively. […] To determine whether the growth inhibitory effect is due to increased tumor cell death, genomic DNA was isolated from the treated tumor cells and analyzed by agarose gel electrophoresis.
# as §2
# SW620 cells [4] = test: SW620 growth with anticancer drugs, MTT assay; format: cell-based, human; settings: Verticillin A pretreatment, then Etoposide, Cisplatin, 5-FU or Doxorubicin
# Protocol: as §1
# Etoposie, Cisplatin, 5-FU and Doxorubicin are commonly used cancer drugs that suppress tumor cell growth through their cytotoxicity. High cytotoxicity is often associated with high dose of their drugs. Furthermore, tumor cells often develop resistance to these cytotoxic drugs. To determine whether Verticillin A can increase the efficacy of these drugs and overcome drug resistance, the effectiveness of Verticillin A combined with these 4 drugs in suppression of tumor cell growth was tested in vitro. SW620 cell sensitivity to these drugs was first measured. SW620 cells are resistant to Etoposide but sensitive to 5-FU. […] SW620 cells were next pretreated with Verticillin A, followed by treatment with Etoposide (1 μg/ml), Cisplatin (1 μg/ml), 5-FU ([…]) and Doxorubicin (0.01 μg/ml), respectively.
# HepG2 cells [5] = test: DNA fragmentation assay; format: cell-based, human; settings: HepG2, agarose gel electrophoresis
# Protocol: Tumor cells were lysed in lysis buffer (5 mM Tris-HCl, pH 8.0, 100 mM Ethylenediaminetetraacetic acid (EDTA), 1% (w/v) Sodium dodecyl sulfate (SDS), and proteinase K) at 45° C. for 2 h. RNA was removed by incubation with RNase A. Genomic DNA was extracted by phenol/chloroform/isoamyl alcohol (25:24:1) and precipitated with ethanol. The purified genomic DNA was then analyzed by electrophoresis in a 1.2% agarose gel.
# as §3
# Hela = test: MTT growth inhibition, Hela; format: cell-based; settings: Homo sapiens, Cervical Cancer, MTT assay
# Protocol: as §1, §2
# Jurkat = test: MTT growth inhibition, Jurkat; format: cell-based; settings: Homo sapiens, T Cell Leukemia, MTT assay
# Protocol: as §1, §2
# SW620 cells [6] = test: Apoptosis and TRAIL sensitization of SW620 cells (PI/annexin V flow cytometry); format: cell-based, human
# Protocol: Cells were seeded in wells of 96-well plates for 2 days and then treated with different concentrations of mushroom extract fractions or purified verticillin A for 2 days. The cells were stained with propidium iodide (PI) (Trevigen, Gaithersburg, Md.) or PI plus annexin V-Alex Fluor 647 (Biolegend, San Diego, Calif.) and analyzed by flow cytometry.
# SW620 is a metastatic human colon carcinoma cell line that is resistant to TRAIL-induced apoptosis (Voelkel-Johnson C, et al. Mol Cancer Ther 2005 4(9):1320-7).
# MCF-7 = test: MTT growth inhibition, MCF-7; format: cell-based; settings: Homo sapiens, MCF7, Mammary Carcinoma, MTT assay
# Protocol: as §1, §2
# SW620 cells [7] = test: Sensitization to FasL-induced apoptosis; format: cell-based, human; settings: SW620, verticillin A pre-treatment then recombinant FasL
# Protocol: Because the Fas-mediated apoptosis and TRAIL-induced apoptosis share similar signaling pathways, it was next tested whether Verticillin A also sensitizes tumor cells to FasL-induced apoptosis. SW620 cells were treated with verticillin A, followed by treatment with recombinant FasL.
# HepG2 tumor = HepG2 tumor growth in athymic mice; format: in vivo; settings: intravenous injection
# Protocol: To determine whether the growth inhibitory effect of verticillin A can be extended to in vivo tumor growth inhibition, HepG2 cells were injected subcutaneously to athymic mice. Tumor-bearing mice were then treated with verticillin A by intravenous injection.
# Athymic mice were subcutaneously inoculated with human hepatoma HepG2 and colon carcinoma SW620 cells, respectively. The tumor-bearing mice were randomized into experimental groups. The control mice were given saline. The treatment group was intravenously injected with verticillin A at the doses of 1 and 2 mg/kg body weight. Tumor size was measured in 2 diameter with micrometer caliper at the indicate times to permit calculation of tumor volume, V=(a×b^2)/2, where “a” is the length and “b” is the width in millimeters. At the end of the experiment, all the animals were sacrificed, The tumor inhibitory rates were calculated using the following formula: [(mean tumor volume of control nude mice−mean tumor volume of treated nude mice)/mean tumor volume of control nude mice]×100%.
smiles,measurement,setting,value
CN1C(=O)[C@]23SS[C@]1(C)C(=O)N2C1Nc2ccccc2[C@@]1(C12c4ccccc4NC1N1C(=O)[C@@]4(C)SS[C@]1(C(=O)N4C)[C@H]2O)[C@@H]3O (stereo partly shown) [Verticillin A],IC50,Bcap-37,119 nM
same,"expression levels of BNIP3, IRF8, Neurog1, p15ink4b, RUNX3",[1],dramatically increased the expression levels of BNIP3 and these 4 genes
same,growth of tumor cells in vitro,"[2]; Bcap-37, MCF-7, HepG2, HeLa, SMMC-7721, SPC-A1, Jurkat",significantly inhibited the growth of all these tumor cells
same,IC50,"[2]; span over the tumor cell lines of Table 1, read-out: IC50 for multiple types of cancer cells",< 200 nM
same,concentration at which the inhibitory effect reached plateau,"HepG2 cells [3]; HepG2, MTT assay 24 and 72 h",100 to 150 nM
same,lowest concentration exhibiting growth inhibitory effect,"HepG2 cells [3]; HepG2, MTT assay 24 and 72 h",10 nM
same,IC50,"HepG2 cells [3]; Homo sapiens, Hepatoma, HepG2, MTT assay",62 nM
same,inhibitory activity against HepG2 cells,"HepG2 cells [3]; purified compound, cytotoxicity screen",potent inhibitory activity
same,tumor growth inhibitory effect of the drugs combined with Verticillin A,SW620 cells [4],significantly increased the tumor growth inhibitory effects
same,genomic DNA fragmentation,HepG2 cells [5],induces genomic DNA fragmentation
same,IC50,Hela,122 nM
same,IC50,Jurkat,37 nM
same,sensitization to TRAIL-induced apoptosis,"SW620 cells [6]; SW620, 10 nM verticillin A in combination with TRAIL",dramatically sensitized SW620 cells to TRAIL-induced apoptosis
same,"apoptosis induction, single agent","SW620 cells [6]; SW620, agent alone",induced significant apoptosis
same,concentration that overcomes TRAIL resistance,SW620 cells [6]; human cancer cells,10 nM
same,IC50,MCF-7,64 nM
same,sensitization to FasL-induced apoptosis,SW620 cells [7],significantly increases tumor cells to FasL-induced apoptosis
same,HepG2 tumor growth inhibition,HepG2 tumor; 2 mg/kg body weight,significantly inhibited HepG2 tumor growth
same,"HepG2 tumor growth inhibition, dose dependence",HepG2 tumor; 1 and 2 mg/kg body weight,tumor growth inhibitory effects at a dose-dependent manner
